Experimental data as given in patent publication US9290740B2, “Use of basic fibroblast growth factor in the de-differentiation of animal connective tissue cells” (Worcester Polytechnic Institute, priority 2008, dated 2016).
“Also recorded” adds a separate entry of the source.

How the values were obtained:
[1] = tested on: Msx-1, Msx-2, Sox-2, Oct-4 and Nanog in adult human fibroblasts (CRL-2352); assay: Immunocytochemistry / western blot for stem cell transcription factors in FGF2-cultured fibroblasts; type: cell-based
Description: (§1) Adult human fibroblasts (CRL-2352, ATCC) were cultured in conditions of 37° C., 5% CO2, 5% O2 90% N2 were seeded into 24 well plates (BD Falcon) either without substrate or with 15 mm Thermanox® coverslips (Nalge Nunc) at 5,000 cells per well in medium consisting of DMEM with 4 mM fresh L-glutamine: Ham's F12 medium (50:50) supplemented with 1×TCH serum replacement (Protide Pharmaceuticals), 1×ITS-X (Invritrogen), 2% FetalClone III (Hyclone), and 4 ng/ml FGF2 (Chemicon). After 5 days, the cells were washed with DPBS w/o Ca/Mg (Mediatech) and fixed in methanol (−20° C.) for 10 min, washed with DPBS and stored in DPBS at 4° C. until use. For detection of nuclear antigens (Msx-1, Msx-2, Sox-2, Oct-4 and Nanog), enhanced nuclear membrane permeabilization was performed by incubation with 1.5 N HCl for 20 min, followed by 3 washes (5 min) in PBS. For immuno-cytochemistry, cells were washed with PBS/Tween (PBS, MediaTech with 0.05% Tween-20, Biorad) and blocked for 30 min at RT with PBS containing 0.05% Tween, 5% FBS, and 1% BSA). Primary antibodies (1:200 dilution) were added in blocking solution for 30 min at RT. Cells were washed 4× in PBS/Tween and Alexafluor-568 labeled appropriate secondary antibody diluted 1:1000 in blocking solution added for 30 min. Cells were washed 4× in PBS/Tween and stored in PBS at 4 C until image analysis. Antibodies used were: Msx-1 (SantaCruz, sc-17726), Msx-2 (Santa Cruz, sc-17729), Sox-2 (Abeam, ab15830), Oct4 (Santa Cruz, sc-8630), Nanog (abeam ab21624) FGF receptor-1 (Abgent, AP7636a), FGF Receptor-2 (Abgent, AP7636a), FGF2 (N-terminus, Santa Cruz sc-1390), FGF2 (internal, Santa Cruz sc-79), fibroblast specific protein (FSP, Sigma). Coverslips were removed and mounted onto glass slides in 80% glycerol in PBS containing 0.1% Na-Azide and sealed with nail polish. Cells were visualized using at Olympus IX81 inverted microscope with epi-fluorescence using appropriate filters (Semrock, Inc.) and phase contrast. Images were collected using a 12 bit Hamamatzu CCD camera (Model C4742-80-12AG) and images processes using Slidebook®.
Fibroblasts were seeded into 24 well plates (BD Falcon) with 15 mm Thermanox® coverslips (Nunc) or #2 12 mm round glass coverslips (VWR) at 5,000 cells per well in medium consisting of DMEM with 4 mM fresh L-glutamine: Ham's F12 medium (60:40) supplemented with 1×TCH serum replacement (Protide Pharmaceuticals), 1×ITS-X (Invitrogen), 2% FetalClone III (Hyclone) and cultured at 37° C., 5% CO2, 5% O2 and 90% N2. For FGF2 treatments, FGF2 (4 ng/ml) was added to the medium at the time of seeding. After 7 days, the cells were washed with DPBS w/o Ca/Mg (Mediatech) and fixed in methanol (−20° C.) for 10 min, washed with DPBS and stored in DPBS at 4 C until use. Cells were washed with PBS/Tween (PBS, MediaTech with 0.05% Tween-20, Biorad) and blocked for 30 min at RT with PBS containing 0.05% Tween, 5% FBS, and 1% BSA). Primary antibodies (2.5 μg/ml) were added in blocking solution for 30 min at RT. Cells were washed 4× in PBS/Tween and Alexafluor-568 labeled appropriate secondary antibody (4 μg/ml) in blocking solution added for 30 min. Cells were washed 4× in PBS/Tween and stored in PBS at 4° C. until image analysis. Antibodies used were: Oct4 (Abcam ab19857), Sox2 (Abcam, ab15830), Nanog (Abcam, ab21624, FGFR-1 (Abgent, AP7636a), FGFR-2 (Abgent, AP7636a), FGFR3 (Abcam ab10651), FGFR4 (Abcam ab41948), FGF2 (Santa Cruz, sc-1390 and sc-79). Coverslips were removed and mounted onto glass slides in 80% glycerol in PBS containing 0.1% Na-Azide and sealed with nail polish. Cells were visualized using an Olympus IX81 inverted microscope with epi-fluorescence using appropriate filters (Semrock, Inc.) and phase contrast. Images were collected using a 12 bit Hamamatzu CCD camera and processed using Slidebook®. […]

[2] = tested on: FGFR1, FGFR2, FGFR3, FGFR4 and FGF2 in adult human dermal fibroblasts; assay: Expression and localization of FGF2 and FGF receptors (RT-PCR, immunocytochemistry); type: cell-based
Description: as §1, with “Slidebook®. […]” for “Slidebook®.”

FGFR4 localization ([2]; FGF2 addition): no effect | transcription of FGF receptors or FGF2 itself ([2]; regardless of the culture conditions): no significant effect
Substance: FGF2: human recombinant FGF2 (Invitrogen, Chemicon or Protide), basic fibroblast growth factor
effect on Oct4, Sox2 and Nanog protein ([1]; FGF2 4 ng/ml, 5% O2, 7 days): translation and nuclear translocation | cells with stem-like nuclear localization of the transcription factors ([1]; FGF2, lowered oxygen, 7 days of culture): up to 30% | localization of Msx2, Sox2 and Oct4, Thermanox coverslips ([1]; Thermanox coverslips, 2% serum, low O2, FGF2): detected in the nucleus; also recorded: nuclear localization of all three transcription factors | FGF2 concentration at which Sox-2 is induced ([1]; culture for 2 days, preliminary dose response): 0.5 ng/mL | ICC for transcription factors Oct4, Sox2 and Msx1 ([1]; early transition of cultures grown in the presence of FGF2): positive | localization of induced Sox2 expression ([1]; preliminary dose response, before change to Thermanox coverslips): restricted to the cytoplasm | expression of Msx-2, Sox-2 and Oct-4, tissue culture plastic ([1]; tissue culture plastic, low O2, low serum, FGF2 4 ng/ml, 5 days): some cytoplasmic expression | localization of FGF2, FGFR1 and FGFR2 (immunocytochemistry) ([2]; cells supplemented with FGF2): in the nucleus as well as on the cell surface; also recorded: translocated to the nucleus
